Laboratory results from publication PMC6799938, “Determinants of drug entry into the developing brain” (F1000Research, 2019).
Like-named read-outs stand apart in the source and are kept apart here. Values belong to the compound of their own block, whether it stands above or below them.

Experiments:
[1] = system: abcc5 (MRP5)
[2] = system: abcb1a (PGP)
[3] = system: abcb1b (PGP)
[4] = Sprague Dawley, rat, in vivo
[5] = system: abcc2 (MRP2)
[6] = system: abcc3 (MRP3)
[7] = system: abcc1 (MRP1)
[8] = system: abcc4 (MRP4)
[9] = system: abcg2 (BCRP)
[10] = for Brain radioactivity level / CSF radioactivity level / Plasma radioactivity level: mean; for Brain/Plasma Ratio / CSF/Plasma Ratio: mean ± SD
Description: Animals. Sprague Dawley rats were supplied by the University of Melbourne Biological Research Facility and housed in groups of 2–4 (adult) or full litters per cage (25cm x 35cm x 25cm on Breeders Choice paper bedding, made from 99% recycled paper; it is biodegradable with no added chemicals), on a 12 h light/dark cycle with ad libitum access to food (dry pellets of a fixed formulation diet for laboratory rats and mice fortified with vitamins and minerals to meet the requirements of breeding animals after the diet is autoclaved or irradiated, supplied by Speciality Feeds, Western Australia) and water. Age groups investigated (at treatment completion) were time mated pregnant females at E19 (350-400g body weight), postnatal pups at P4 and non-pregnant female adults (175-230g body weight). E19 was chosen because this is a stage of development when adequate volumes of blood and CSF can be obtained for analysis from fetal rats without pooling ( [Dziegielewska et al., 1981]) and individual pups can be injected intraperitoneally while still inside the uterine horn and kept viable for periods of time. P4 was chosen because its stage of brain development is similar to that of very prematurely born but viable human infants of 22–24 weeks gestation ( [Clancy et al., 2001]). Animal numbers were based on previous experience of such experiments and were the minimum number required to detect a significant difference between groups at P <0.05.
Drug doses. Drug doses were selected based on use in clinical practice ( [Australian Medicines Handbook, 2019]) and adjusted for body weight.
(§1) Experimental procedure. In acute drug experiments, a single dose was injected that included traces of [ ^3H]-labelled drug (20µCi adults, 2µCi newborns). In chronic experiments, doses of unlabelled drug were given twice daily (09.00 and 17.00h) for four days before a final injection on the 5 ^th day identical to acute experiments. In passive marker experiments, all dosing was acute and contained only the [ ^3H]- or [ ^14C]-labelled compound (20µCi adults, 2µCi newborns).
(§2) In all experiments involving postnatal animals, injections were intraperitoneal (i.p.). In pregnant animals for fetal drug entry studies, the final injection of the radiolabelled marker was given intravenously (i.v.), as the peritoneal cavity required opening prior to the sampling period to gain access to the fetuses. For passive markers (L-glucose, sucrose and glycerol), fetal animals were individually injected i.p. while still within the uterine horn. All experiments took place between 09.00 and 15.00h. All pregnancy studies were completed with a single treatment group on one day. Postnatal groups were conducted with a single treatment group on one day or with the chronic group completed prior to the acute group.
(§3) Sample collection. Samples were collected 30 minutes after the final injection. This duration was chosen partly to limit any potential metabolism of the drugs and markers used but also to allow enough time for i.p. injected markers to reach the blood stream and, from there, to access the brain parenchyma across brain barriers, as well as to limit the CSF sink effect that could influence drug levels ( [Bito et al., 1966]). Thirty minutes is also within the half-life of these drugs ( [Adedoyin et al., 1987]; [Harrison & Gibaldi, 1976]; Lin & Levy, 1963). The other reason a 30-minute duration was chosen is that in the case of exposed fetal rat pups, it is difficult to maintain them in a reasonable physiological state for long periods due to deterioration of placental perfusion. Therefore, for comparative purposes, all studies were conducted at the same time.
For adult and newborn (P4) experiments, animals were terminally anaesthetized using inhaled isofluorane (IsoFlo 100% w/w, Abbott Laboratories).

[11] = Placental transfer at E19 (fetal/maternal plasma concentration ratio); conditions: E19, passive permeability markers, acute; for Fetal/Maternal plasma concentration ratio: mean ± SD
[12] = Entry of "passive" markers into brain and CSF; conditions: passive marker, all ages (E19, P4, adults), 30 minutes
Description: as §1, §2, §3
For adult and newborn (P4) experiments, animals were terminally anaesthetized using inhaled isofluorane (IsoFlo 100% w/w, Abbott Laboratories). Blood samples were collected from the right cardiac ventricle, CSF from the cisterna magna (Habgood et al., 1992) and cortical segments of brain tissue dorsal to the ventricle of the frontal/parietal lobes, as previously described ( [Koehn et al., 2019]). Blood and CSF sampling from the P4 animals was terminal and would thus not have affected the physiological state of the animals during the experiment.
Sample preparation. Samples were processed immediately after collection. Blood was centrifuged at 7000rpm for five minutes and the plasma separated. CSF samples were examined microscopically for traces of red blood cells and discarded if contaminated (Habgood et al., 1992). In all experiments, the radioactivity in the injectate was also measured to confirm the uniformity of the injected material. All samples were weighed and transferred into scintillation vials. Soluene350 (0.5ml, PerkinElmer) was added to the brain samples. After being incubated at 36°C overnight to allow the tissue to solubilize, two drops of glacial acetic acid (Sigma) were added to neutralize the strongly alkaline Soluene350. All samples were then mixed with 5ml of scintillation fluid (Emulsifier-safe, PerkinElmer) before being transferred into the liquid scintillation counter (Tri-Carb 4910 TR, PerkinElmer) to count radioactivity disintegrations per minute (DPM) over five minutes each with luminescence correction on. Blank vials containing the same tissues without radioactivity were also counted alongside the samples to establish the level of background counts, which were always subtracted from the radioactivity counts of the corresponding experimental samples.
BrainorCSFtransfer=BrainorCSFDPM/μl/plasmaDPM/μl×100%

[13] = choroid plexus (lateral ventricular), E19
[14] = choroid plexus (lateral ventricular), P4
[15] = choroid plexus (lateral ventricular), adult
[16] = E19 fetuses, acute, 30 min - […] after administration
[17] = E19 fetuses, acute, listed as cimetidine
[18] = E19 fetuses, chronic (twice daily over five days), 30 min - […] after final dose
[19] = P4, acute, 30 min, listed as cimetidine
[20] = P4, chronic i.p. (twice daily over five days), 30 min after final dose
[21] = adult, acute, 30 min, listed as cimetidine
[22] = adult, chronic i.p. (twice daily over five days), 30 min after final dose

- restriction of transfer by the placenta [4]: ~70%
- transfer from maternal blood to fetal brain ([10]; E19, acute): 17%
- Brain radioactivity level [10, 16]: 7.3 DPM/µg
- CSF radioactivity level [10, 16]: 7.0 DPM/µl
- Plasma radioactivity level [10, 16]: 13.0 DPM/µl
- Brain/Plasma Ratio ([10]; E19 fetuses, acute): 56 ± 10%
- CSF/Plasma Ratio ([10]; E19 fetuses, acute): 54 ± 11%
- Brain/Plasma Ratio [10, 17]: 56%
- CSF/Plasma Ratio [10, 17]: 54%
- Brain radioactivity level [10, 18]: 8.8 DPM/µg
- CSF radioactivity level [10, 18]: 8.4 DPM/µl
- Plasma radioactivity level [10, 18]: 13.3 DPM/µl
- Brain/Plasma Ratio ([10]; E19 fetuses, chronic): 65 ± 19%
- CSF/Plasma Ratio ([10]; E19 fetuses, chronic): 63 ± 15%
- Brain radioactivity level ([10]; P4, acute i.p., 30 min): 37.2 DPM/µg
- CSF radioactivity level ([10]; P4, acute i.p., 30 min): 24.3 DPM/µl
- Plasma radioactivity level ([10]; P4, acute i.p., 30 min): 310.9 DPM/µl
- Brain/Plasma Ratio ([10]; P4, acute, 30 min): 12 ± 1%
- CSF/Plasma Ratio ([10]; P4, acute, 30 min): 8 ± 1%
- Brain/Plasma Ratio [10, 19]: 12%
- CSF/Plasma Ratio [10, 19]: 8%
- Brain radioactivity level [10, 20]: 45.7 DPM/µg
- CSF radioactivity level [10, 20]: 27.8 DPM/µl
- Plasma radioactivity level [10, 20]: 373.2 DPM/µl
- Brain/Plasma Ratio ([10]; P4, chronic, 30 min): 12 ± 2%
- CSF/Plasma Ratio ([10]; P4, chronic, 30 min): 7 ± 1%
- transfer into maternal brain (brain/maternal blood) ([10]; acute): 13%
- Brain radioactivity level ([10]; adult, acute i.p., 30 min): 6.2 DPM/µg
- CSF radioactivity level ([10]; adult, acute i.p., 30 min): 6.0 DPM/µl
- Plasma radioactivity level ([10]; adult, acute i.p., 30 min): 55.9 DPM/µl
- Brain/Plasma Ratio ([10]; adult, acute, 30 min): 13 ± 5%
- CSF/Plasma Ratio ([10]; adult, acute, 30 min): 12 ± 3%
- Brain/Plasma Ratio [10, 21]: 13%
- CSF/Plasma Ratio [10, 21]: 12%
- Brain radioactivity level [10, 22]: 11.6 DPM/µg
- CSF radioactivity level [10, 22]: 11.1 DPM/µl
- Plasma radioactivity level [10, 22]: 90.7 DPM/µl
- Brain/Plasma Ratio ([10]; adult, chronic, 30 min): 13 ± 1%
- CSF/Plasma Ratio ([10]; adult, chronic, 30 min): 12 ± 1%
SMILES: CN/C(=N/CCSCc1nc[nH]c1C)NC#N [Cimetidine]
- abcc5 expression, fold change chronic vs acute ([1]; brain cortex, E19): 0.97 fold
- abcc5 expression, fold change chronic vs acute ([1]; brain cortex, P4): ↑ 1.24 fold
- abcc5 expression, fold change chronic vs acute ([1]; brain cortex, P4, listed as cimetidine): 1.24 fold
- abcc5 expression, fold change chronic vs acute ([1]; brain cortex, adult): 1.11 fold
- abcc5 expression, fold change chronic vs acute [1, 13]: 1.19 fold
- abcc5 expression, fold change chronic vs acute [1, 14]: 0.86 fold
- abcc5 expression, fold change chronic vs acute [1, 15]: 1.21 fold
- abcc5 expression, fold change chronic vs acute ([1]; placenta, E19): 1.14 fold
- abcb1a expression, fold change chronic vs acute ([2]; brain cortex, E19): 0.93 fold
- abcb1a expression, fold change chronic vs acute ([2]; brain cortex, P4): ↑ 1.23 fold
- abcb1a expression, fold change chronic vs acute ([2]; brain cortex, adult): 1.06 fold
- abcb1a expression, fold change chronic vs acute [2, 13]: 1.73 fold
- abcb1a expression, fold change chronic vs acute [2, 14]: 1.72 fold
- abcb1a expression, fold change chronic vs acute [2, 15]: 1.06 fold
- abcb1a expression, fold change chronic vs acute ([2]; placenta, E19): 0.86 fold
- abcb1b expression, fold change chronic vs acute ([3]; brain cortex, E19): 1.09 fold
- abcb1b expression, fold change chronic vs acute ([3]; brain cortex, P4): 1.03 fold
- abcb1b expression, fold change chronic vs acute ([3]; brain cortex, adult): 0.87 fold
- abcb1b expression, fold change chronic vs acute [3, 13]: 1.66 fold
- abcb1b expression, fold change chronic vs acute [3, 14]: 1.00 fold
- abcb1b expression, fold change chronic vs acute [3, 15]: 1.15 fold
- abcb1b expression, fold change chronic vs acute ([3]; placenta, E19): 1.00 fold
- abcc2 expression, fold change chronic vs acute ([5]; brain cortex, E19): 0.96 fold
- abcc2 expression, fold change chronic vs acute ([5]; brain cortex, P4): ↓ 0.92 fold
- abcc2 expression, fold change chronic vs acute ([5]; brain cortex, adult): 1.00 fold
- abcc2 expression, fold change chronic vs acute [5, 13]: 1.19 fold
- abcc2 expression, fold change chronic vs acute [5, 14]: 1.04 fold
- abcc2 expression, fold change chronic vs acute [5, 15]: 0.86 fold
- abcc2 expression, fold change chronic vs acute ([5]; placenta, E19): *10.07 fold
- abcc3 expression, fold change chronic vs acute ([6]; brain cortex, E19): 0.81 fold
- abcc3 expression, fold change chronic vs acute ([6]; brain cortex, P4): 1.12 fold
- abcc3 expression, fold change chronic vs acute ([6]; brain cortex, adult): 1.18 fold
- abcc3 expression, fold change chronic vs acute [6, 13]: 1.46 fold
- abcc3 expression, fold change chronic vs acute [6, 14]: 1.05 fold
- abcc3 expression, fold change chronic vs acute [6, 15]: 1.12 fold
- abcc3 expression, fold change chronic vs acute ([6]; placenta, E19): 0.96 fold
- abcc1 expression, fold change chronic vs acute ([7]; brain cortex, E19): 1.00 fold
- abcc1 expression, fold change chronic vs acute ([7]; brain cortex, P4): 1.11 fold
- abcc1 expression, fold change chronic vs acute ([7]; brain cortex, adult): 1.20 fold
- abcc1 expression, fold change chronic vs acute [7, 13]: 1.28 fold
- abcc1 expression, fold change chronic vs acute [7, 14]: 0.96 fold
- abcc1 expression, fold change chronic vs acute [7, 15]: 1.06 fold
- abcc4 expression, fold change chronic vs acute ([8]; brain cortex, E19): 0.98 fold
- abcc4 expression, fold change chronic vs acute ([8]; brain cortex, P4): 1.18 fold
- abcc4 expression, fold change chronic vs acute ([8]; brain cortex, adult): 1.00 fold
- abcc4 expression, fold change chronic vs acute [8, 13]: 1.17 fold
- abcc4 expression, fold change chronic vs acute [8, 14]: 1.12 fold
- abcc4 expression, fold change chronic vs acute [8, 15]: ↑ 1.49 fold
- abcc4 expression, fold change chronic vs acute ([8]; placenta, E19): 0.69 fold
- abcg2 expression, fold change chronic vs acute ([9]; brain cortex, E19): 0.80 fold
- abcg2 expression, fold change chronic vs acute ([9]; brain cortex, P4): 1.11 fold
- abcg2 expression, fold change chronic vs acute ([9]; brain cortex, adult): 0.98 fold
- abcg2 expression, fold change chronic vs acute [9, 13]: 1.01 fold
- abcg2 expression, fold change chronic vs acute [9, 14]: 0.73 fold
- abcg2 expression, fold change chronic vs acute [9, 15]: 0.91 fold
- abcg2 expression, fold change chronic vs acute ([9]; placenta, E19): 1.24 fold

SMILES: O=C[C@@H](O)[C@H](O)[C@@H](O)[C@@H](O)CO [L-Glucose, L-glucose]
- Fetal/Maternal plasma concentration ratio, range [11]: (8.3 - 27.7) %
- Fetal/Maternal plasma concentration ratio [11]: 16.7 ± 6.5%
- Fetal/Maternal plasma concentration ratio ([11]; listed as L-glucose): 16.7%
- Brain/Plasma Ratio [12]: very low
- CSF/Plasma Ratio [12]: very low
